Test results published in article PMC4176484, “Comparative study of four immortalized human brain capillary endothelial cell lines, hCMEC/D3, hBMEC, TY10, and BB19, and optimization of culture conditions, for an in vitro blood–brain barrier model for drug permeability studies” (Fluids and Barriers of the CNS, 2013).

Legend:
[1] = Recovery (mass balance) in permeability assays through mono-cultures; assay type: in vitro ADME; settings: human, pH 7.4; all mono-culture permeability experiments (hCMEC/D3, hBMEC, TY10)
Experimental: For the permeability assay, tissue culture inserts were transferred into a 24-well plate containing 700 μL of pre-warmed (37°C) Ringer HEPES buffer (150 mM NaCl, 2.2 mM CaCl2, 0.2 mM MgCl2, 5.2 mM KCl, 2.8 mM glucose, 5 mM HEPES, and 6 mM NaHCO3, pH 7.4) in each well (basolateral compartment). Medium in inserts (apical compartment) was then replaced with 300 μL of a pre-warmed (37°C) working solution containing Na-F or LY at 10 μg/mL in Ringer HEPES buffer. The 24-well plate was incubated at 37°C on an orbital shaker (ELMI DTS-2, Riga, Latvia) with moderate speed (100 rpm) and aliquots of 250 μL of both apical and basolateral compartments were collected after 1 h. […] Quantification of fluorescence (Na-F: excitation 490 nm, emission 514 nm; LY: excitation 430 nm, emission 535 nm) was carried out using a Chameleon microplate reader (Hidex, Turku, Finland). The apparent permeability coefficient (Papp) for Na-F and LY was calculated in centimeters/second (cm/s) according to the equation: […]
(§1) Recovery (mass balance) of Na-F and LY was calculated with the following equation: […]
[43] where CAf and CBf are the final concentrations of the compound in the apical and basolateral compartment, respectively, CA0 is the initial concentration in the apical compartment, and VA and VB are the volumes in the apical and basolateral compartments, respectively. All results are expressed as means ± S.E.M.

[2] = Paracellular permeability (Papp) of marker compounds through hBMEC mono-cultures on 24-well inserts; assay type: in vitro ADME; settings: human, mean ± S.E.M.
Experimental: (§2) To further assess tight junction (TJ) integrity of endothelial cell layers, paracellular permeabilities of Na-F (MW 376.27) and LY (MW 550.39) were measured. These two fluorescent, non-P-glycoprotein (P-gp) substrate molecules have low BBB penetration and are widely used as barrier integrity markers for in vitro models. To obtain comparative data, hCMEC/D3 cells, hBMEC cells, and TY10 cells were seeded onto 24-well tissue culture inserts (Greiner Bio-one®, transparent polyethylene terephthalate (PET) membrane, 3.0 μm pore size, 0.6 × 10^6 pores/cm^2) and incubated at 37°C (5% CO2) (except TY10 cells) inside the CellZscope cell module (Figure 2). For TY10, the CellZscope system was first put at 33°C (5% CO2) for 2 days and was thereafter transferred to 37°C (5% CO2) for 2 days prior to the permeability assay (Figure 3D). Cell seeding density for hCMEC/D3 and hBMEC was 6.0 × 10^4 cells/cm^2, and for TY10 it was 3.0 × 10^4 cells/cm^2. For hBMEC, contact co-culture models with SVG-A cells (9.0 × 10^4 cells/cm^2) or HBPCT cells (6.0 × 10^4 cells/cm^2) on the basal side of the coated filter membranes were tested.
TEER and CCL values before and after the assays were monitored continuously for integrity control. All experiments for Na-F permeability were carried out at the time indicated with a black arrow in Figures 3A-D. For LY permeability assessment, TEER values were in the same range (graphs not shown). […]
(§3) For the permeability assay, tissue culture inserts were transferred into a 24-well plate containing 700 μL of pre-warmed (37°C) Ringer HEPES buffer (150 mM NaCl, 2.2 mM CaCl2, 0.2 mM MgCl2, 5.2 mM KCl, 2.8 mM glucose, 5 mM HEPES, and 6 mM NaHCO3, pH 7.4) in each well (basolateral compartment). […] Quantification of fluorescence (Na-F: excitation 490 nm, emission 514 nm; LY: excitation 430 nm, emission 535 nm) was carried out using a Chameleon microplate reader (Hidex, Turku, Finland). The apparent permeability coefficient (Papp) for Na-F and LY was calculated in centimeters/second (cm/s) according to the equation: […]

[3] = Paracellular permeability (Papp) of marker compounds through hCMEC/D3 mono-cultures on 24-well inserts; assay type: in vitro ADME; settings: human, Greiner Bio-one transparent PET 3.0 μm inserts, mean ± S.E.M.
Experimental: as §2
TEER and CCL values before and after the assays were monitored continuously for integrity control. All experiments for Na-F permeability were carried out at the time indicated with a black arrow in Figures 3A-D. For LY permeability assessment, TEER values were in the same range (graphs not shown). BB19 cells were not included in this permeability study since TEER values were extremely low.
For the permeability assay, tissue culture inserts were transferred into a 24-well plate containing 700 μL of pre-warmed (37°C) Ringer HEPES buffer (150 mM NaCl, 2.2 mM CaCl2, 0.2 mM MgCl2, 5.2 mM KCl, 2.8 mM glucose, 5 mM HEPES, and 6 mM NaHCO3, pH 7.4) in each well (basolateral compartment). Medium in inserts (apical compartment) was then replaced with 300 μL of a pre-warmed (37°C) working solution containing Na-F or LY at 10 μg/mL in Ringer HEPES buffer. The 24-well plate was incubated at 37°C on an orbital shaker (ELMI DTS-2, Riga, Latvia) with moderate speed (100 rpm) and aliquots of 250 μL of both apical and basolateral compartments were collected after 1 h. All experiments were performed at least in triplicate. Quantification of fluorescence (Na-F: excitation 490 nm, emission 514 nm; LY: excitation 430 nm, emission 535 nm) was carried out using a Chameleon microplate reader (Hidex, Turku, Finland). The apparent permeability coefficient (Papp) for Na-F and LY was calculated in centimeters/second (cm/s) according to the equation: […]

[4] = Paracellular permeability (Papp) of marker compounds through TY10 mono-cultures on 24-well inserts; assay type: in vitro ADME; settings: human, pH 7.4, TY10 monolayers (33°C 2 days, then 37°C 2 days), Greiner Bio-one transparent PET 3.0 μm inserts, mean ± S.E.M.
Experimental: (§4) To further assess tight junction (TJ) integrity of endothelial cell layers, paracellular permeabilities of Na-F (MW 376.27) and LY (MW 550.39) were measured. These two fluorescent, non-P-glycoprotein (P-gp) substrate molecules have low BBB penetration and are widely used as barrier integrity markers for in vitro models. To obtain comparative data, hCMEC/D3 cells, hBMEC cells, and TY10 cells were seeded onto 24-well tissue culture inserts (Greiner Bio-one®, transparent polyethylene terephthalate (PET) membrane, 3.0 μm pore size, 0.6 × 10^6 pores/cm^2) and incubated at 37°C (5% CO2) (except TY10 cells) inside the CellZscope cell module (Figure 2). […]
TEER and CCL values before and after the assays were monitored continuously for integrity control. […]
as §3

hBMEC mono-cultures = experiment: Maximal TEER of hBMEC mono-cultures under different culture conditions, CellZscope; settings: collagen type I coating
Experimental: For the screening of 24-well tissue culture inserts from different providers (Corning®, Greiner Bio-One®, BD Falcon®, Millipore®, Nunc®, and Brand®), each endothelial cell line (hCMEC/D3 (cultured with growth medium 20% FBS), hBMEC, TY10, and BB19) was seeded separately on the apical side of the filter membrane at a density varying between 1.5 × 10^4 and 17 × 10^4 cells/cm^2. Prior to seeding, the membranes were coated with rat-tail collagen type I. The tissue culture inserts were placed into a 24-well cell module of a CellZscope system (NanoAnalytics, Münster, Germany) [30] which was placed inside an incubator (37°C and 5% CO2). For in vitro models with TY10 cells, further experiments were performed for which the CellZscope system was first placed at 33°C (5% CO2) for 2 days and subsequently transferred to 37°C (5% CO2). The medium was refreshed every 2–4 days. TEER values were recorded in real-time every hour. TEER values for cell layers, expressed in Ωcm^2, were obtained by subtracting the TEER of a coated control insert without cells from a coated insert with cells. After placing the CellZscope system into the incubator, the cell module needs at least 6 h to reach 37°C. Since TEER values are highly temperature sensitive [36], recorded TEER values in this time period were not considered to be valid and are not reported. For each in vitro experiment, 2 or 3 replicates were measured. Results are expressed as means ± S.E.M. In addition to TEER values, the CellZscope system monitors the cell layer capacitance (CCL) which reflects the membrane surface area. CCL values in the range of 0.5-5.0 μF/cm^2 indicate cell confluency and validate TEER values [37, 38]. All reported TEER values in the result section belong to a CCL within this range, if not reported otherwise.

[5] = Paracellular permeability (Papp) through hBMEC contact co-culture with SVG-A astrocytes; assay type: in vitro ADME; settings: human, mean ± S.E.M.
Experimental: as §4, §3

[6] = Paracellular permeability (Papp) through hBMEC contact co-culture with HBPCT pericytes; assay type: in vitro ADME; settings: human, mean ± S.E.M.
Experimental: as §4, §3

[7] = Recovery (mass balance) in permeability assays through hBMEC mono-cultures and contact co-cultures; assay type: in vitro ADME; settings: human, pH 7.4; all hBMEC mono-culture / co-culture experiments with SVG-A or HBPCT
Experimental: as §4, §3, §1

[8] = pH 7.4, hBMEC mono-culture, growth medium 20% FBS, Greiner Bio-one transparent PET 3.0 μm inserts, 10 μg/mL apical, 1 h, 37°C
[9] = pH 7.4, hCMEC/D3 cultivated with growth medium containing 20% FBS
[10] = pH 7.4, hCMEC/D3 grown with initial medium containing 5% FBS

Work on C=CS(=O)(=O)c1cccc(N2C(=O)c3cc(S(=O)(=O)[O-])cc4c(N)c(S(=O)(=O)[O-])cc(c34)C2=O)c1.[Li+].[Li+] [LY, Lucifer Yellow VS dilithium salt] yielded a recovery at 1 h, 10 μg/mL [1] of 66 to 79%, a Papp at 1 h, 10 μg/mL [2, 8] of 5.39 ± 0.364 ×10⁻⁶ cm/s and a Papp at 1 h, 10 μg/mL [3, 9] of 11.7 ± 0.957 ×10⁻⁶ cm/s. The Papp at 1 h, 10 μg/mL [3, 10] was 10 ± 0.498 ×10⁻⁶ cm/s and the Papp at 1 h, 10 μg/mL [4] was 9.68 ± 0.413 ×10⁻⁶ cm/s.
For C[C@@H]1C[C@H]2[C@@H]3CCC4=CC(=O)C=C[C@]4(C)[C@@]3(F)[C@@H](O)C[C@]2(C)[C@@]1(O)C(=O)CO [dexamethasone], the “Mean max. TEER ± S.E.M.” value (hBMEC mono-cultures; growth medium with dexamethasone 500 nM for 3 days (only apical), 9.0 × 10^4 cells/cm^2, at 4.15 d) was 35.9 (± 0.338) Ωcm^2 and the “Mean max. TEER ± S.E.M.” value (hBMEC mono-cultures; growth medium with dexamethasone 1000 nM for 3 days (only apical), 9.0 × 10^4 cells/cm^2, at 4.15 d) was 38.0 (± 1.26) Ωcm^2.
For O=C([O-])c1ccccc1-c1c2ccc(=O)cc-2oc2cc([O-])ccc12.[Na+].[Na+] [Na-F, sodium fluorescein], the recovery at 1 h, 10 μg/mL [1] was 75 to 87%, the Papp at 1 h, 10 μg/mL ([5]; pH 7.4, hBMEC co-cultured with SVG-A, medium deprived of growth factors, n = 3) was 6.88 ± 0.516 ×10⁻⁶ cm/s and the Papp at 1 h, 10 μg/mL ([5]; pH 7.4, hBMEC contact co-culture with SVG-A, medium with growth factors) was 7.43 ± 0.2 ×10⁻⁶ cm/s. For the same compound, the Papp at 1 h, 10 μg/mL [2, 8] was 5.08 ± 0.22 ×10⁻⁶ cm/s, the Papp at 1 h, 10 μg/mL ([2]; pH 7.4, hBMEC monolayers cultured without growth factors, n = 3) was 5.11 ± 0.0487 ×10⁻⁶ cm/s and the Papp at 1 h, 10 μg/mL ([6]; pH 7.4, hBMEC co-cultured with HBPCT, medium deprived of growth factors, n = 3) was 7.22 ± 0.455 ×10⁻⁶ cm/s. The Papp at 1 h, 10 μg/mL ([6]; pH 7.4, hBMEC contact co-culture with HBPCT, medium with growth factors) was 8.26 ± 0.893 ×10⁻⁶ cm/s, the recovery at 1 h, 10 μg/mL [7] was 98 to 102% and the Papp at 1 h, 10 μg/mL [3, 9] was 13.4 ± 0.484 ×10⁻⁶ cm/s. It also gave a Papp at 1 h, 10 μg/mL [3, 10] of 12.5 ± 0.326 ×10⁻⁶ cm/s and a Papp at 1 h, 10 μg/mL [4] of 12.4 ± 0.155 ×10⁻⁶ cm/s.
In the case of C[C@]12CCC(=O)C=C1CC[C@@H]1[C@@H]2[C@@H](O)C[C@@]2(C)[C@H]1CC[C@]2(O)C(=O)CO [HC, hydrocortisone], the “Mean max. TEER ± S.E.M.” value (hBMEC mono-cultures; growth medium with additional HC 500 nM for 3 days (only apical), 4.5 × 10^4 cells/cm^2, at 3.19 d) is reported as 43.2 (± 4.27) Ωcm^2 and the “Mean max. TEER ± S.E.M.” value (hBMEC mono-cultures; growth medium with additional HC 1500 nM for 3 days (only apical), 4.5 × 10^4 cells/cm^2, at 3.19 d) is reported as 40.4 (± 0.646) Ωcm^2.
With human epidermal growth factor [hEGF] the “Mean max. TEER ± S.E.M.” value (hBMEC mono-cultures; growth medium with additional hEGF 50 ng/mL for 3 days (only apical), 9.0 × 10^4 cells/cm^2, at 4.15 d) was 36.4 (± 0.902) Ωcm^2 and the “Mean max. TEER ± S.E.M.” value (hBMEC mono-cultures; growth medium with additional hEGF 100 ng/mL for 3 days (only apical), 9.0 × 10^4 cells/cm^2, at 4.15 d) was 40.0 (± 1.94) Ωcm^2.
